Columns and labels:
[1] = system: ulcer formation induced by indomethacin; assay: Inhibition of indomethacin-induced ulcer formation in rats (antiulcerative effect); assay type: in vivo, Wister male rats; conditions: Rattus norvegicus, P.O., 30 minutes before oral indomethacin 20 mg/kg, ulcer length 5 hours after indomethacin
Protocol: (i) Determination of Antiulcerative Effect
The inhibiting effect on ulcer formation induced by indomethacin was examined by using rats. Wister male rats (7 weeks old, body weight 220 g) were abstained from food for 24 hours except giving water and then subjected to experiments.
The sample compounds to be tested were dissolved in a phosphoric acid buffer (pH 7.4) containing 0.9% NaCl and the solution was orally administered to the rats. 30 minutes after the administration, indomethacin was orally administered to the rats at a dose of 20 mg/kg. 5 hours after the administration of the indomethacin, the rats were killed and the ulcer formation in the stomach was examined by determining the length of the ulcer formation portion under a stereomicroscope. From this measurement, the inhibition of ulcer formation by the sample compounds was calculated to determine the ED50 values.

platelet aggregation [2] = assay: In vitro platelet aggregation inhibition (ADP-induced, PRP); assay type: cell-based, Japanese white male domestic rabbits; conditions: Oryctolagus cuniculus, rabbit PRP, 10 μM ADP, 37° C., sample in ethanol diluted with phosphoric acid buffer pH 7.4, left at 0° C. for 4 hours, lowest concentration at which the inhibition is 50%, read-out: Anti-platelet aggregation effect IC50
Protocol: (ii) In vitro PlateletAAggregation Inhibition Effect
The in vitro platelet aggregation inhibition effect of the sample compounds to be tested was examined by using rabbits. That is, blood was collected from the ear vein of native Japanese white male domestic rabbits weighing 2.5 to 3.5 kg. The collected blood was 9 parts by volume per 1 part by volume of a 3.8% sodium citrate solution. The blood was centrifuged at 100 r.p.m. for 10 minutes. The upper layer portion was separated as PRP (rich in platelet blood plasma). The lower layer portion was further centrifuged at 2800 r.p.m. for 10 minutes to divide it into two layers. The upper layer portion was separated as PPP (poor in platelet blood plasma). The member of the platelet was diluted with PPP to 6 to 7×10^' /μl. After the adjustment, 25 μl of the sample compound was added to 250 μl of PRP, which was preincubated at a temperature of 37° C. for 2 minutes. […]
When the activity of the sample compounds was determined, the ethanol solution was diluted with a phosphoric acid buffer (pH 7.4). The ethanol solution diluted with the buffer was left to stand at a temperature of 0° C. for 4 hours, after which the activity of the sample compounds was determined in the same manner.
The agglutination inhibition was calculated by the following formula: [formula] […]

platelet aggregation [3] = conditions: compared with prostacyclin; cited from earlier work

| SMILES | ED50 [1] [mg/kg] | IC50 (platelet aggregation [2]) [µg/mL] | platelet aggregation inhibition effect (platelet aggregation [3]) |
| --- | --- | --- | --- |
| CCCCC(C)(O)C/C=C/[C@H]1[C@H](O)CC(=O)[C@@H]1CC(CCCCC(=O)OC)[N+](=O)[O-] (stereo partly drawn) | 0.022 | > 100 |  |
| CCCCC[C@H](O)/C=C/[C@H]1[C@H](O)CC(=O)[C@@H]1CC(=O)CCCCC(=O)O [6-oxoprostaglandin E1] |  |  | as strong as those of prostacyclin |
